From PMC11181336, “Discovery of ITI-333, a Novel Orally Bioavailable Molecule Targeting Multiple Receptors for the Treatment of Pain and Other Disorders” (Journal of Medicinal Chemistry, 2024)
Like-named read-outs stand apart in the source and are kept apart here.

How the values were obtained:
[1] = biological target: human recombinant dopamine D1 receptor (Homo sapiens, UniProt P21728); test: Dopamine D1 receptor binding, [3H]SCH 23390 displacement; conditions: for inhibition at 0.1 µM: read-out: D1 % inhibition
[2] = biological target: T1, human recombinant 5-HT transporter (SERT) (Homo sapiens, UniProt P31645); test: biochemical; assay type: binding; conditions: for inhibition at 0.1 µM / inhibition at 0.2 µM: read-out: SERT % inhibition
T1 construct: host or cells: CHO-S / SERT (h), cell membrane homogenates

[3] = biological target: T2, human full-length recombinant serotonin 5-HT2A receptors (Homo sapiens, UniProt P28223); test: biochemical; assay type: binding; conditions: for inhibition at 0.1 µM: read-out: 5-HT2A % inhibition
T2 construct: human full-length recombinant serotonin 5-HT2A receptors expressed in HEK-293E cells

[4] = biological target: human recombinant dopamine D2 short receptor (Homo sapiens, UniProt P14416); test: Dopamine D2 receptor binding, [3H]7-OH-DPAT displacement; conditions: for inhibition at 0.1 µM: read-out: D2 % inhibition
[5] = inhibition at 100 nM, NI = no inhibition

T1 sequence (P31645 whole entry): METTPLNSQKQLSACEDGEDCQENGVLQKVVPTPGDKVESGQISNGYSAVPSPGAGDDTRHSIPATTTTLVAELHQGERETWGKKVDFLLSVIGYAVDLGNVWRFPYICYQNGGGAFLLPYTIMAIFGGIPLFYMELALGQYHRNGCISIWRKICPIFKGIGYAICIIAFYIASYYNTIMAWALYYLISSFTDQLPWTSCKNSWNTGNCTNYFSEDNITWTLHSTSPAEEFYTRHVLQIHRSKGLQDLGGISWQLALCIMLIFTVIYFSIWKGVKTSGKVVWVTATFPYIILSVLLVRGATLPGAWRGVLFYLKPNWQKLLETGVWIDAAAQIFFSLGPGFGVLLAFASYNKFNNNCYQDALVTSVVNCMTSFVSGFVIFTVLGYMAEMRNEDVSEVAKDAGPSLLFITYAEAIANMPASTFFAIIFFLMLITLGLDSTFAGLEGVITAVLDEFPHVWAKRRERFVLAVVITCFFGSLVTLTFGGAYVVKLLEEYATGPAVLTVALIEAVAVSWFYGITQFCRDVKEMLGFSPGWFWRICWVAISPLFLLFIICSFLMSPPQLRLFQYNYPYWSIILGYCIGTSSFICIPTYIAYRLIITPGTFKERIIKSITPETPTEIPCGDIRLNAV
T2 sequence (P28223 whole entry): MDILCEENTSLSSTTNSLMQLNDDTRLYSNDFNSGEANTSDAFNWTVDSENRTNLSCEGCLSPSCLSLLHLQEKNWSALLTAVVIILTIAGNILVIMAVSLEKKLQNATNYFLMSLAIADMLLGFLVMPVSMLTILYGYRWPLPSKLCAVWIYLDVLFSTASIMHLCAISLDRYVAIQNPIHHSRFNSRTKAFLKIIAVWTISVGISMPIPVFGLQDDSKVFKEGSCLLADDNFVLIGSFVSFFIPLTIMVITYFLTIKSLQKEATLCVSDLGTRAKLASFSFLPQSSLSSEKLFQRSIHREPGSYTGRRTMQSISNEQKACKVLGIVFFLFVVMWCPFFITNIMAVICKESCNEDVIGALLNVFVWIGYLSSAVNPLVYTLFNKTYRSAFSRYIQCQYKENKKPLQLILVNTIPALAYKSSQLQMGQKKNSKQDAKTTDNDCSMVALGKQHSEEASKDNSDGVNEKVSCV
human recombinant dopamine D2 short receptor, sequence (P14416 1-414 isoform P14416-2): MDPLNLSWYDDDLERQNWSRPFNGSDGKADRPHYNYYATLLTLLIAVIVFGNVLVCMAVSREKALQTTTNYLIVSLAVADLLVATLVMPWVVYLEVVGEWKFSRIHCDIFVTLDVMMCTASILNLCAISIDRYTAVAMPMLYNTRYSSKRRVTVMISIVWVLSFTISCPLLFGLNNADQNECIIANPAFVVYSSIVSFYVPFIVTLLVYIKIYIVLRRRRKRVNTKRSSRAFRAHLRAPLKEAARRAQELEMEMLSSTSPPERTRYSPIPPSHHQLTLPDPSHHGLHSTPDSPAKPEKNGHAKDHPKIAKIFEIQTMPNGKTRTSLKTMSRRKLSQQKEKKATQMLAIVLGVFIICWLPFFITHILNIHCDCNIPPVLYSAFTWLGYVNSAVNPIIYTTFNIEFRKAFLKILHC
human recombinant dopamine D1 receptor, sequence (P21728 whole entry): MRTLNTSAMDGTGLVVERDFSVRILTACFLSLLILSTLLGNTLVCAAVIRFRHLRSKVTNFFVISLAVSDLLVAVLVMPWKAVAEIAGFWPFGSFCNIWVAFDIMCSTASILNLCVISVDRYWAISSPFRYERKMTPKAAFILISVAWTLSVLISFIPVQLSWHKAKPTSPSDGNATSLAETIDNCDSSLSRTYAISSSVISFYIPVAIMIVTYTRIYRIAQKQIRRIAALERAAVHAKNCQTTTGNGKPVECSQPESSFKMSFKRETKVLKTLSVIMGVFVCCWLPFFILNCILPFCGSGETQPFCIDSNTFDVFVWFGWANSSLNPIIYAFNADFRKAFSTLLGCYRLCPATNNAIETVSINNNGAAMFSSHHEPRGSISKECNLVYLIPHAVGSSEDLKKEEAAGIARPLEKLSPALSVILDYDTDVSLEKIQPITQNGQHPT

O=C1CN2c3c(cccc3[C@@H]3CN(CCCOc4ccc(F)cc4)CC[C@H]32)N1 (racemic) [compound 20, (±)-(trans)-8-(3-(4-Fluorophenoxy)propyl)-6b,7,8,9,10,10a-hexahydro-1H-pyrido[3′,4′:4,5]pyrrolo[1,2,3-de]quinoxalin-2(3H)-one]
D1(Ki or (% Inhibition)): % inhibition [1]: 5.6 (79%) | inhibition at 0.1 µM [1]: 79% | inhibition at 0.1 µM [2]: < 0%

CCCCN1CC[C@H]2[C@@H](C1)c1cccc3c1N2CC(=O)N3 [compound 21, (6bR,10aS)-8-Butyl-6b,7,8,9,10,10a-hexahydro-1H-pyrido[3′,4′:4,5]pyrrolo[1,2,3-de]quinoxalin-2(3H)-one]
inhibition at 0.1 µM [1, 5]: < 0% | inhibition at 0.1 µM [3]: < 0% | inhibition at 0.2 µM [2]: < 0% | inhibition at 0.1 µM [4, 5]: 15%

O=C1CN2c3c(cccc3[C@@H]3CN(CCCO)CC[C@@H]32)N1 [compound 22, (6bR,10aS)-8-(3-Hydroxypropyl)-6b,7,8,9,10,10a-hexahydro-1H-pyrido[3′,4′:4,5]pyrrolo[1,2,3-de]quinoxalin-2(3H)-one]
inhibition at 0.1 µM [1, 5]: < 0% | inhibition at 0.1 µM [3]: 8% | inhibition at 0.2 µM [2]: < 0% | inhibition at 0.1 µM [4, 5]: < 0%

O=C1CN2c3c(cccc3[C@@H]3CN(CCCOc4ccccc4)CC[C@@H]32)N1 [compound 23, (6bR,10aS)-8-(3-Phenoxypropyl)-6b,7,8,9,10,10a-hexahydro-1H-pyrido[3′,4′:4,5]-pyrrolo[1,2,3-de]quinoxalin-2(3H)-one]
inhibition at 0.1 µM [1]: 24% | Ki [3]: 2.8 nM | inhibition at 0.1 µM [3]: 84% | inhibition at 0.2 µM [2]: 8% | inhibition at 0.1 µM [4]: 34%

O=C1CN2c3c(cccc3[C@@H]3CN(CCCc4n[nH]c5cc(F)ccc45)CC[C@@H]32)N1 [compound 24, (6bR,10aS)-8-(3-(6-Fluoro-1H-indazol-3-yl)propyl)-6b,7,8,9,10,10a-hexahydro-1H-pyrido[3′,4′:4,5]pyrrolo-[1,2,3-de]quinoxalin-2(3H)-one]
Ki [1]: 5.2 nM | Ki [3]: 2.6 nM | Ki [2]: 540 nM | Ki [4]: 15 nM

O=C1CN2c3c(cccc3[C@@H]3CN(CCCc4noc5cc(F)ccc45)CC[C@@H]32)N1 [compound 26, (6bR,10aS)-8-(3-(6-Fluorobenzo[d]isoxazol-3-yl)propyl)-6b,7,8,9,10,10a-hexahydro-1H-pyrido[3′,4′:4,5]-pyrrolo[1,2,3-de]quinoxalin-2(3H)-one]
Ki [1]: 13 nM | Ki [3]: 3.1 nM | Ki [4]: 84 nM | fold weaker affinity to dopamine D2 receptors [4]: over 5 fold

O=C1CN2c3c(cccc3[C@@H]3CN(CCCOc4ccc5c(c4)OCO5)CC[C@@H]32)N1 [compound 28, (6bR,10aS)-8-(3-(Benzo[d][1,3]dioxol-5-yloxy)propyl)-6b,7,8,9,10,10a-hexahydro-1H-pyrido[3′,4′:4,5]-pyrrolo[1,2,3-de]quinoxalin-2(3H)-one]
inhibition at 0.1 µM [1, 5]: < 0% | inhibition at 0.1 µM [3]: < 0%

O=C1CN2c3c(cccc3[C@@H]3CN(CCCOc4ccc(Br)cc4)CC[C@@H]32)N1 [compound 30, (6bR,10aS)-8-(3-(4-Bromophenoxy)propyl)-6b,7,8,9,10,10a-hexahydro-1H-pyrido[3′,4′:4,5]pyrrolo-[1,2,3-de]quinoxalin-2(3H)-one]
inhibition at 0.1 µM [1, 5]: < 0% | inhibition at 0.1 µM [3]: 70% | inhibition at 0.1 µM [2]: 44% | inhibition at 0.1 µM [4, 5]: 8.4%

Cc1ccc(OCCCN2CC[C@H]3[C@@H](C2)c2cccc4c2N3CC(=O)N4)cc1 [compound 32, (6bR,10aS)-8-(3-(p-Tolyloxy)propyl)-6b,7,8,9,10,10a-hexahydro-1H-pyrido[3′,4′:4,5]pyrrolo[1,2,3-de]-quinoxalin-2(3H)-one]
inhibition at 0.1 µM [1, 5]: 13% | inhibition at 0.1 µM [3]: 62% | inhibition at 0.1 µM [2]: 9.6% | inhibition at 0.1 µM [4, 5]: 20%

O=C1CN2c3c(cccc3[C@@H]3CN(CCCOc4ccc(O)cc4)CC[C@@H]32)N1 [compound 33, (6bR,10aS)-8-(3-(4-Hydroxyphenoxy)propyl)-6b,7,8,9,10,10a-hexahydro-1H-pyrido[3′,4′:4,5]pyrrolo-[1,2,3-de]quinoxalin-2(3H)-one]
inhibition at 0.1 µM [1, 5]: < 0% | inhibition at 0.1 µM [3]: 77% | inhibition at 0.1 µM [2]: 11% | inhibition at 0.1 µM [4, 5]: 41%

COc1ccc(OCCCN2CC[C@H]3[C@@H](C2)c2cccc4c2N3CC(=O)N4)cc1 [compound 34, (6bR,10aS)-8-(3-(4-Methoxyphenoxy)propyl)-6b,7,8,9,10,10a-hexahydro-1H-pyrido[3′,4′:4,5]pyrrolo-[1,2,3-de]quinoxalin-2(3H)-one]
inhibition at 0.1 µM [1, 5]: < 0% | inhibition at 0.1 µM [3]: < 0% | inhibition at 0.1 µM [2]: 10%

O=C1CN2c3c(cccc3[C@@H]3CN(CCCOc4ccc(OCc5ccccc5)cc4)CC[C@@H]32)N1 [compound 35, (6bR,10aS)-8-(3-(4-(Benzyloxy)phenoxy)propyl)-6b,7,8,9,10,10a-hexahydro-1H-pyrido[3′,4′:4,5]-pyrrolo[1,2,3-de]quinoxalin-2(3H)-one]
inhibition at 0.1 µM [1, 5]: 4.6% | inhibition at 0.1 µM [3]: 76% | inhibition at 0.1 µM [2]: 68% | inhibition at 0.1 µM [4, 5]: 23%

O=C1CN2c3c(cccc3[C@@H]3CN(CCCOc4ccccc4F)CC[C@@H]32)N1 [compound 36, (6bR,10aS)-8-(3-(2-Fluorophenoxy)propyl)-6b,7,8,9,10,10a-hexahydro-1H-pyrido[3′,4′:4,5]pyrrolo[1,2,3-de]quinoxalin-2(3H)-one]
inhibition at 0.1 µM [1, 5]: 18% | inhibition at 0.1 µM [3]: 87% | inhibition at 0.1 µM [2]: 5.1% | inhibition at 0.1 µM [4, 5]: 28%

O=C1CN2c3c(cccc3[C@@H]3CN(CCCOc4cccc(F)c4)CC[C@@H]32)N1 [compound 37, (6bR,10aS)-8-(3-(3-Fluorophenoxy)propyl)-6b,7,8,9,10,10a-hexahydro-1H-pyrido[3′,4′:4,5]pyrrolo[1,2,3-de]quinoxalin-2(3H)-one]
inhibition at 0.1 µM [1, 5]: 32% | inhibition at 0.1 µM [3]: 78% | inhibition at 0.1 µM [2]: 7.7% | inhibition at 0.1 µM [4, 5]: 14%

NC(=O)c1cc(F)ccc1OCCCN1CC[C@H]2[C@@H](C1)c1cccc3c1N2CC(=O)N3 [compound 38, 5-Fluoro-2-(3-((6bR,10aS)-2-oxo-2,3,6b,9,10,10a-hexahydro-1H-pyrido[3′,4′:4,5]pyrrolo[1,2,3-de]quinoxalin-8(7H)-yl)propoxy)benzamide]
inhibition at 0.1 µM [1, 5]: < 0% | inhibition at 0.1 µM [3]: 14% | inhibition at 0.1 µM [2]: 9.6% | inhibition at 0.1 µM [4, 5]: < 0%

O=C1CN2c3c(cccc3[C@@H]3CN(CCCOc4ccc(F)c(F)c4)CC[C@@H]32)N1 [compound 39, (6bR,10aS)-8-(3-(3,4-Difluorophenoxy)propyl)-6b,7,8,9,10,10a-hexahydro-1H-pyrido[3′,4′:4,5]pyrrolo-[1,2,3-de]quinoxalin-2(3H)-one]
D1(Ki or (% Inhibition)): % inhibition [1]: 232 (15%) | Ki [1]: 232 nM | inhibition at 0.1 µM [1]: 15% | 5-HT2A (Ki or (% Inhibition)): % inhibition [3]: 16.1 (71%) | Ki [3]: 16.1 nM | fold reduction of affinity to 5-HT2A receptors [3]: approximately 6 fold | inhibition at 0.1 µM [3]: 71% | Ki [2]: 508 nM | SERT (Ki or (% Inhibition)): % inhibition [2]: 508 (15%) | inhibition at 0.2 µM [2]: 15% | D2(Ki or (% Inhibition)): % inhibition [4]: 1620 (7%) | Ki [4]: 1620 nM | inhibition at 0.1 µM [4]: 7%

Cc1cc(F)cc(C)c1OCCCN1CC[C@H]2[C@@H](C1)c1cccc3c1N2CC(=O)N3 [compound 43, (6bR,10aS)-8-(3-(4-Fluoro-2,6-dimethylphenoxy)propyl)-6b,7,8,9,10,10a-hexahydro-1H-pyrido[3′,4′:4,5]-pyrrolo[1,2,3-de]quinoxalin-2(3H)-one]
inhibition at 0.1 µM [1]: < 0% | inhibition at 0.1 µM [3]: 40% | inhibition at 0.2 µM [2]: 34% | inhibition at 0.1 µM [4]: < 0%

O=C1CN2c3c(cccc3[C@@H]3CN(CCCS(=O)(=O)c4ccc(F)cc4)CC[C@@H]32)N1 [compound 46, (6bR,10aS)-8-(3-((4-Fluorophenyl)sulfonyl)propyl)-6b,7,8,9,10,10a-hexahydro-1H-pyrido[3′,4′:4,5]-pyrrolo-[1,2,3-de]quinoxalin-2(3H)-one]
inhibition at 0.1 µM [1, 5]: < 0% | inhibition at 0.1 µM [3]: 33% | inhibition at 0.2 µM [2]: < 0% | inhibition at 0.1 µM [4, 5]: < 0%

CN(CCCN1CC[C@H]2[C@@H](C1)c1cccc3c1N2CC(=O)N3)c1ccc(F)cc1 [compound 48, (6bR,10aS)-8-(3-((4-Fluorophenyl)(methyl)amino)propyl)-6b,7,8,9,10,10a-hexahydro-1H-pyrido[3′,4′:4,5]pyrrolo[1,2,3-de]quinoxalin-2(3H)-one]
inhibition at 0.1 µM [1, 5]: 21% | inhibition at 0.1 µM [3]: 76% | inhibition at 0.2 µM [2]: 53% | inhibition at 0.1 µM [4, 5]: 14%

O=C1CN2c3c(cccc3[C@@H]3CN(CCOc4ccc(F)cc4)CC[C@@H]32)N1 [compound 49, (6bR,10aS)-8-(2-(4-Fluorophenoxy)ethyl)-6b,7,8,9,10,10a-hexahydro-1H-pyrido[3′,4′:4,5]pyrrolo[1,2,3-de]quinoxalin-2(3H)-one]
inhibition at 0.1 µM [1, 5]: 10% | inhibition at 0.1 µM [3]: 48% | inhibition at 0.1 µM [2]: < 0% | inhibition at 0.1 µM [4, 5]: 24%

O=C1CN2c3c(cccc3[C@@H]3CN(CCCCOc4ccc(F)cc4)CC[C@@H]32)N1 [compound 50, (6bR,10aS)-8-(4-(4-Fluorophenoxy)butyl)-6b,7,8,9,10,10a-hexahydro-1H-pyrido[3′,4′:4,5]pyrrolo[1,2,3-de]quinoxalin-2(3H)-one]
inhibition at 0.1 µM [1, 5]: 5.4% | inhibition at 0.1 µM [3]: 37% | inhibition at 0.1 µM [2]: < 0% | inhibition at 0.1 µM [4, 5]: 27%

O=C1CN2c3c(cccc3[C@H]3CN(CCCOc4ccc(F)cc4)CC[C@H]32)N1 [compound 54, (6bS,10aR)-8-(3-(4-Fluorophenoxy)propyl)-6b,7,8,9,10,10a-hexahydro-1H-pyrido[3′,4′:4,5]pyrrolo[1,2,3-de]quinoxalin-2(3H)-one]
D1(Ki or (% Inhibition)): % inhibition [1]: 75 (50%) | inhibition at 0.1 µM [1]: 50% | inhibition at 0.1 µM [2]: < 0%
